As usually defined, the MIC is the least concentration at which growth counts as inhibited. As a reminder, the GI50 is the concentration giving 50% growth inhibition.

Series [1] concerns Escherichia coli. In words: Potentiation of colistin-induced antibacterial activity against Escherichia coli AR0493 harboring mcr-1 plasmid assessed as minimum resensitizing concentration. It is filed as functional.
In series [2] the test system is Escherichia coli. The experiment in a line: Antibacterial activity against Escherichia coli AR0493 harboring mcr-1 plasmid assessed as inhibition of bacterial growth. It is filed as functional.
Series [3] is described as follows: Cytotoxicity against human HeLa cells assessed as inhibition of cell growth by cell viability assay. It is filed as toxicity, cell-based.
Series [4] in a line: Selectivity index, ratio of GI50 for cytotoxicity against human HeLa cells to MRC for Potentiation of colistin-induced antibacterial activity against Escherichia coli AR0493 harboring mcr-1 plasmid. It is filed as toxicity, cell-based. To be noted: read-out: Selectivity Index.
In series [5] the test system is Salmonella typhimurium. In words: Antibacterial activity against Salmonella Typhimurium AR0539 harboring mcr-3 plasmid assessed as inhibition of bacterial growth. Type of series: functional, organism-based. The following applies: Salmonella enterica subsp. enterica serovar Typhimurium.
Series [6] has as its system Pseudomonas aeruginosa. The experiment in a line: Antibacterial activity against Pseudomonas aeruginosa AR0257 assessed as inhibition of bacterial growth. Type of series: functional, organism-based.
The subject of series [7] is Pseudomonas aeruginosa. In words: Antibacterial activity against Pseudomonas aeruginosa AR0239 assessed as inhibition of bacterial growth. Type of series: functional, organism-based.
The test system of series [8] is Klebsiella pneumoniae. The experiment in a line: Antibacterial activity against Klebsiella pneumoniae AR0497 harboring mcr-1 plasmid assessed as inhibition of bacterial growth. It is filed as functional, organism-based.
The test system of series [9] is Acinetobacter baumannii. In words: Antibacterial activity against Acinetobacter baumannii AR0310 assessed as inhibition of bacterial growth. Type of series: functional, organism-based.
The test system of series [10] is Salmonella typhimurium. In words: Antibacterial activity against Salmonella Typhimurium AR0635 harboring mcr-4 plasmid assessed as inhibition of bacterial growth. It is filed as functional, organism-based. To be noted: Salmonella enterica subsp. enterica serovar Typhimurium.
For series [11], the system named is Escherichia coli. The experiment in a line: Antibacterial activity against Escherichia coli AR0538 harboring mcr-2 plasmid assessed as inhibition of bacterial growth. Type of series: functional, organism-based.
Series [12] has as its system Escherichia coli. In words: Potentiation of colistin-induced antibacterial activity against Escherichia coli AR0538 harboring mcr-2 plasmid assessed as colistin MIC at 1 ug/ml. Type of series: functional. The following applies: dose 1 µg/ml.
In series [13] the test system is Pseudomonas aeruginosa. In words: Potentiation of colistin-induced antibacterial activity against Pseudomonas aeruginosa AR0257 assessed as colistin MIC at 1 ug/ml. Type of series: functional. To be noted: dose 1 µg/ml.
Series [14] relates to Salmonella typhimurium. The experiment in a line: Potentiation of colistin-induced antibacterial activity against Salmonella Typhimurium AR0539 harboring mcr-3 plasmid assessed as colistin MIC at 1 ug/ml. Type of series: functional, Salmonella enterica subsp. enterica serovar Typhimurium. The following applies: Salmonella enterica, dose 1 µg/ml.
Series [15] concerns Salmonella typhimurium. In words: Potentiation of colistin-induced antibacterial activity against Salmonella Typhimurium AR0635 harboring mcr-4 plasmid assessed as colistin MIC at 1 ug/ml. To be noted: Salmonella enterica, dose 1 µg/ml. It is filed as functional, Salmonella enterica subsp. enterica serovar Typhimurium.
In series [16] the test system is Klebsiella pneumoniae. In words: Potentiation of colistin-induced antibacterial activity against Klebsiella pneumoniae AR0497 harboring mcr-1 plasmid assessed as colistin MIC at 1 ug/ml. Type of series: functional. To be noted: dose 1 µg/ml.
In series [17] the test system is Escherichia coli. In words: Potentiation of colistin-induced antibacterial activity against Escherichia coli AR0493 harboring mcr-1 plasmid assessed as colistin MIC at 1 ug/ml. It is filed as functional. The following applies: dose 1 µg/ml.
For series [18], the system named is Acinetobacter baumannii. In words: Potentiation of colistin-induced antibacterial activity against Acinetobacter baumannii AR0310 assessed as colistin MIC at 1 ug/ml. Type of series: functional. To be noted: dose 1 µg/ml.
The subject of series [19] is Pseudomonas aeruginosa. The experiment in a line: Potentiation of colistin-induced antibacterial activity against Pseudomonas aeruginosa AR0239 assessed as colistin MIC at 1 ug/ml. Type of series: functional. To be noted: dose 1 µg/ml.

Converted amounts (≈) assume the structure as drawn.

In the case of `Cc1ccc(Nc2nc3nonc3nc2Nc2ccc(C)cc2)cc1`, in the series on Escherichia coli [1], the MRC was found to be 0.5 µg/mL. For the same compound, the MIC in the series on Escherichia coli [2] was above 64 µg/mL. Also, the GI50 in series [3] stood at 11 µg/mL (≈ 33.1 µM). Besides, the selectivity ratio in [4] turned out to be 22.

For the compound `Cc1ccc(Nc2nc3nonc3nc2O)cc1`, in the series on Escherichia coli [1], the MRC turned out to be 64 µg/mL.

For the compound COLISTIN, the MIC in the series on Salmonella typhimurium [5] came out at 8 µg/mL; in the series with Pseudomonas aeruginosa [6] it was 8 µg/mL; in the series with Pseudomonas aeruginosa [7], 4 µg/mL; in the series with Escherichia coli [2] it was 8 µg/mL; in the series with Klebsiella pneumoniae [8] it was 8 µg/mL; with Acinetobacter baumannii [9], 32 µg/mL. Moreover, the figures for the MIC in the series with Salmonella typhimurium [10] and with Escherichia coli [11] were 32 µg/mL and 8 µg/mL, respectively.

`Oc1nc2nonc2nc1Nc1ccccc1Cl`: the MRC with Escherichia coli [1] was 16 µg/mL.

On to `COc1cccc(Nc2nc3nonc3nc2Nc2cccc(OC)c2)c1`, for which, in the series with Escherichia coli [1], the MRC worked out at 2 µg/mL.

Take `Clc1cccc(Nc2nc3nonc3nc2Nc2cccc(Cl)c2)c1`: the MIC with Escherichia coli [12] was 1 µg/mL; with Pseudomonas aeruginosa [13] it was 2 µg/mL; in the series with Salmonella typhimurium [14] it was 1 µg/mL; with Escherichia coli [2], above 64 µg/mL; in the series with Salmonella typhimurium [15], 1 µg/mL; in the series on Klebsiella pneumoniae [16] it was 1 µg/mL. Also, the MIC in the series with Escherichia coli [17] stood at 1 µg/mL; with Acinetobacter baumannii [18], 0.25 µg/mL; in the series with Pseudomonas aeruginosa [19], 1 µg/mL. Moreover, in [3], the GI50 was found to be 11 µg/mL (≈ 29.5 µM). In series [4], the selectivity ratio turned out to be 44.

In the case of `COc1ccccc1Nc1nc2nonc2nc1Nc1cccc(OC(F)(F)F)c1`, the MRC with Escherichia coli [1] was above 64 µg/mL.

As for `Cc1cccc(Nc2nc3nonc3nc2Nc2cccc(OC(F)(F)F)c2)c1`, in the series on Escherichia coli [1], the MRC amounted to 0.5 µg/mL. Further, the MIC in the series on Escherichia coli [2] was above 64 µg/mL. In series [3], the GI50 is 12 µg/mL (≈ 29.8 µM). Moreover, the selectivity ratio in series [4] turned out to be 24.

In the case of `FC(F)(F)Oc1cccc(Nc2nc3nonc3nc2Nc2cccc(OC(F)(F)F)c2)c1`, the MRC with Escherichia coli [1] is 0.25 µg/mL. In addition, in the series on Escherichia coli [2], the MIC is above 64 µg/mL. For the same compound, in [3], the GI50 amounted to 4.3 µg/mL (≈ 9.1 µM). In addition, in [4], the selectivity ratio was 17.

Take `Oc1nc2nonc2nc1Nc1ccccc1`: the MRC in the series on Escherichia coli [1] was above 64 µg/mL.

`Fc1ccc(Nc2nc3nonc3nc2Nc2ccc(F)cc2)cc1`: in the series on Escherichia coli [1], the MRC amounted to 0.5 µg/mL. Also, in the series with Escherichia coli [2], the MIC is above 64 µg/mL. In series [3], the GI50 turned out to be 9.4 µg/mL (≈ 27.6 µM). The selectivity ratio in [4] was 19.

For the compound `COc1ccc(Nc2nc3nonc3nc2Nc2ccc(OC)cc2)cc1`, the MRC in the series with Escherichia coli [1] was above 64 µg/mL.

For `COc1cccc(Nc2nc3nonc3nc2O)c1`, the MRC in the series on Escherichia coli [1] was 16 µg/mL.

For the compound `COc1ccccc1Nc1nc2nonc2nc1O`, the MRC in the series on Escherichia coli [1] was determined as 4 µg/mL. For the same compound, the MIC in the series with Escherichia coli [2] is above 64 µg/mL. For the same compound, the GI50 in [3] is above 100 µg/mL. For the same compound, the selectivity ratio in series [4] was above 25.

Regarding `Oc1nc2nonc2nc1Nc1ccc(Cl)cc1`, the MRC in the series with Escherichia coli [1] came out at 32 µg/mL.

Regarding `COc1ccccc1Nc1nc2nonc2nc1Nc1ccccc1OC`, the MRC in the series with Escherichia coli [1] is above 64 µg/mL.

As for `FC(F)(F)Oc1ccccc1Nc1nc2nonc2nc1Nc1ccccc1OC(F)(F)F`, in the series with Escherichia coli [1], the MRC is above 64 µg/mL.

As for `Oc1nc2nonc2nc1Nc1ccccc1OC(F)(F)F`, the MRC in the series with Escherichia coli [1] was above 64 µg/mL.

For the compound `Cc1ccccc1Nc1nc2nonc2nc1O`, the MRC with Escherichia coli [1] worked out at 64 µg/mL.

For the compound `O=c1[nH]c2nonc2nc1Nc1cccc(Cl)c1`, the MRC with Escherichia coli [1] amounted to 16 µg/mL.

Consider `Oc1nc2nonc2nc1Nc1cccc(F)c1`, for which, in the series with Escherichia coli [1], the MRC came out at 64 µg/mL.

Turning to `COc1ccc(Nc2nc3nonc3nc2O)cc1`, in the series with Escherichia coli [1], the MRC was above 64 µg/mL.

As to `Clc1ccccc1Nc1nc2nonc2nc1Nc1ccccc1Cl`, the MRC in the series with Escherichia coli [1] amounted to 8 µg/mL.

Turning to `Cc1ccccc1Nc1nc2nonc2nc1Nc1ccccc1C`, in the series on Escherichia coli [1], the MRC came to 8 µg/mL.

Take `Oc1nc2nonc2nc1Nc1ccc(OC(F)(F)F)cc1`: in the series with Escherichia coli [1], the MRC amounted to 16 µg/mL.

`Cc1cccc(Nc2nc3nonc3nc2O)c1`: the MRC in the series on Escherichia coli [1] came to 8 µg/mL.

Turning to `FC(F)(F)Oc1ccc(Nc2nc3nonc3nc2Nc2ccc(OC(F)(F)F)cc2)cc1`, the MRC in the series with Escherichia coli [1] worked out at 0.25 µg/mL. Also, in the series with Escherichia coli [2], the MIC was above 64 µg/mL. For the same compound, the GI50 in series [3] was found to be 5.7 µg/mL (≈ 12.1 µM). The selectivity ratio in series [4] turned out to be 23.

For `Oc1nc2nonc2nc1Nc1cccc(OC(F)(F)F)c1`, the MRC in the series with Escherichia coli [1] was 4 µg/mL. For the same compound, the MIC in the series on Escherichia coli [2] is above 64 µg/mL. Besides, the GI50 in series [3] stood at 24 µg/mL (≈ 76.6 µM). For the same compound, the selectivity ratio in series [4] was 6.

Take `FC(F)(F)Oc1cccc(Nc2nc3nonc3nc2Nc2ccccc2)c1`: in the series on Escherichia coli [1], the MRC turned out to be 1 µg/mL.

Regarding `Fc1cccc(Nc2nc3nonc3nc2Nc2cccc(F)c2)c1`, the MRC in the series on Escherichia coli [1] turned out to be 0.5 µg/mL. For the same compound, the MIC in the series on Escherichia coli [2] is above 64 µg/mL. For the same compound, in series [3], the GI50 came to 20 µg/mL (≈ 58.8 µM). Further, the selectivity ratio in [4] came to 40.

Take `Cc1cccc(Nc2nc3nonc3nc2Nc2cccc(C)c2)c1`: the MRC in the series on Escherichia coli [1] was found to be 0.5 µg/mL. In addition, in the series with Escherichia coli [2], the MIC was above 64 µg/mL. Also, the GI50 in [3] was determined as 15 µg/mL (≈ 45.1 µM). For the same compound, the selectivity ratio in [4] was found to be 30.

For the compound `Oc1nc2nonc2nc1Nc1ccccc1F`, the MRC in the series with Escherichia coli [1] amounted to 64 µg/mL.

For `Clc1ccc(Nc2nc3nonc3nc2Nc2ccc(Cl)cc2)cc1`, the MIC in the series with Escherichia coli [12] is 2 µg/mL; with Pseudomonas aeruginosa [13], 2 µg/mL; in the series on Salmonella typhimurium [14] it was 2 µg/mL; with Escherichia coli [2] it was above 64 µg/mL; in the series on Salmonella typhimurium [15] it was 1 µg/mL; in the series with Klebsiella pneumoniae [16], 1 µg/mL. The MIC turned out to be 1 µg/mL in the series with Escherichia coli [17], 0.25 µg/mL in the series on Acinetobacter baumannii [18] and 1 µg/mL in the series with Pseudomonas aeruginosa [19]. Besides, in the series with Escherichia coli [1], the MRC worked out at 0.5 µg/mL. Also, the GI50 in [3] was 28 µg/mL (≈ 75 µM). Also, the selectivity ratio in series [4] is 56.

For the compound `Oc1nc2nonc2nc1Nc1ccc(F)cc1`, the MRC in the series on Escherichia coli [1] is 32 µg/mL.

Take `c1ccc(Nc2nc3nonc3nc2Nc2ccccc2)cc1`: the MRC in the series with Escherichia coli [1] came out at 0.5 µg/mL. In addition, the MIC in the series with Escherichia coli [2] is above 64 µg/mL. Besides, the GI50 in series [3] was determined as 4.4 µg/mL (≈ 14.5 µM). In addition, the selectivity ratio in series [4] was found to be 8.8.

For the origin of these results see ChEMBL document CHEMBL5113472, “Structure-activity relationship studies of [1,2,5]oxadiazolo[3,4-b]pyrazine-containing polymyxin-selective resistance-modifying agents” (Bioorg Med Chem Lett, 2022).
